Measured values as given in US8440180B2, “Anti-cancer composition comprising aquatic microbial extract” (Ajou University Industry-Academic Cooperation Foundation, priority 2007, dated 2013).

Key:
Assay type in all cases: cell-based, human
[1] = test system: MMP-2; experiment: Expression level test of MMP using RT-PCR; settings: for expression level of the MMP-2: 24 and 48 hours
Method: 1 ml of a cancer cell line was homogenated in a TRIzol (GIBCOBRL, Grand Island, N.Y., USA) reagent, and the total RNA was extracted from the cancer cell line. 2 μg of the total RNA extracted from the hypopharyngeal cancer cell line was put into reaction mixtures of an Omniscript Reverse Transcriptase kit (20511, Qiagen Germany) (including 2.0 μl of 10× Buffer RT, 2.0 μl of dNTP Mix (5 mM each dNTP), 2.0 μl of Oligo-dT primer (10 μM), 1.0 μl of a RNase inhibitor (10 units/μl), 2 units of Omniscript Reverse Transcriptase and 20 μl of RNase-free water), and reverse transcribed at 37° C. for 60 minutes and at 94° C. for 5 minutes to synthesize cDNA. PCR was carried out using Minicycler™ (MJ research, USA), and the synthesized cDNA was added together with 1 unit of Taq DNA polymerase (Roche Diagnostics Co, Indianapolis, USA) and each primer, and then amplified.
DNA sequences of MMP-2 primer and MMP-9 primer used in this experiment were listed as follows.
A PCR procedure was carried out in one initial denaturation cycle at 96° C. for 3 minutes, 30 amplification cycles at 96° C. for 30 seconds, at 55° C. for 30 seconds and at 72° C. for 30 seconds, and one extension cycle at 72° C. for 5 minutes.

[2] = test system: FaDu cells; experiment: Proliferative assay of tumor cell; settings: fifth day after the treatment, compared to the DMSO control
Method: In order to evaluate effects of selected aquatic microbial extracts having an anti-cancer effect, FaDu cells (1×10^5/well) treated with 0, 10 and 30 ng/ml of HGF were treated with an aquatic Bacillus sp. strain extract (concentration: 1, 10 and 100 μM), and then incubated for 5 days. Then, 1, 3 and 5-day growth of the FaDu cells were determined by measuring the cell number of the FaDu cells using a haemocytometer. In this case, a medium was replaced by fresh medium. This experiment was repeated five times to statistically analyze the cell number difference according to the amounts of HGF and the extract.

[3] = test system: MMP-9; experiment: MMP activity test using zymogram; settings: 10 ng HGF-treated group compared to the control
Method: Proteins were quantitified from each of the supernatants, 30 μg of each supernatant was taken, and 15 μl APMA was added to each of the supernatants and activated at 37° C. for 1 hour. The activated test samples were added, and treated with MightySlim™ SX 250 (Hoefer, Calif., USA) for 2 4 hours and 48 hours. Then, the resulting test samples were ground to obtain cytoplasm samples. 10 μl of the cytoplasm samples were taken from these cytoplasm samples and added to sample buffers, respectively, and kept for 10 minutes. Then, the cytoplasm samples were added to previously-prepared gels, and then reacted at 4° C. and 125V for 120 minutes using Novex XCell II. The resulting cytoplasm samples were kept in a renaturing buffer at a room temperature for 60 minutes, and, after a developing buffer was replaced by 100 ml of fresh developing buffer, the cytoplasm samples were kept in the fresh developing buffer for 18 hours at 37° C. while stirring. Then, the cytoplasm samples were stained with Coomassie blue for 3 hours, washed with water, and observed at intervals of 10 minutes. In this case, a the gels were destained with a destaining solution (Methanol 400 ml, Acetic acid 100 ml, Distilled water 500 ml), and photographs of the gels were then taken using an image analyzer.

“HGF: hepatocyte growth factor used to stimulate cancer cells” was tested, and the “expression level of the MMP-2” value ([1]; 10 ng/ml HGF, vs control) was “not significantly different”, the “expression level of the MMP-2” value ([1]; 30 ng/ml HGF) was “increased” and the “expression level between the control and the HGF-treated groups when MMP-2 was treated with the HGF” value ([1]; second statement, printed MMP-2) was “no distinct difference”. The “cell proliferation on stimulation with hepatocyte growth factor” value [2] was “statistically significant cell proliferation” and the “expression of the MMP-9 (MMP activity evaluation)” value [3] was “slightly increased”.
